Tests used:
[1] = target: Beta-3 adrenergic receptor (Homo sapiens, UniProt P13945); assay: DRUGMATRIX: Adrenergic beta3 radioligand binding (ligand: [125I] Cyanopindolol); format: cell membranes, HEK293, Membrane; conditions: hek293; Not Active = under 50% inhibition at 10 µM
D(4) dopamine receptor = target: T1, D(4) dopamine receptor (Homo sapiens, UniProt P21917); assay: DRUGMATRIX: Dopamine D4.2 radioligand binding (ligand: [3H] Spiperone); format: cell membranes, CHO-K1, Membrane; conditions: cho-k1; Not Active = under 50% inhibition at 10 µM
T1 sequence (P21917 whole entry): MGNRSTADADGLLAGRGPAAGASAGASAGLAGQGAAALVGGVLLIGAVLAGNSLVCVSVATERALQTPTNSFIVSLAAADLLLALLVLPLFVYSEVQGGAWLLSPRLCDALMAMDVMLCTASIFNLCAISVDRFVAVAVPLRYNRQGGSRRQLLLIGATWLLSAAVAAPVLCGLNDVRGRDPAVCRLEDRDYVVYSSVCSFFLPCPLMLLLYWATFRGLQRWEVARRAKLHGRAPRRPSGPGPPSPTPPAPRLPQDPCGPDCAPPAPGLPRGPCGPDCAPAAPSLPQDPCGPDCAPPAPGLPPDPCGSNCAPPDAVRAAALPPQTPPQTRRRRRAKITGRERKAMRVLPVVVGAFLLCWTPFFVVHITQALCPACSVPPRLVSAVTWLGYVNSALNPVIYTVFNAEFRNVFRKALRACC

[2] = target: T2, C-X-C chemokine receptor type 2 (Homo sapiens, UniProt P25025); format: cell membranes, CHO-K1, Membrane; conditions: cho-k1; also: in other assays of this panel Not Active means under 50% inhibition at 10 µM
T2 sequence (P25025 whole entry): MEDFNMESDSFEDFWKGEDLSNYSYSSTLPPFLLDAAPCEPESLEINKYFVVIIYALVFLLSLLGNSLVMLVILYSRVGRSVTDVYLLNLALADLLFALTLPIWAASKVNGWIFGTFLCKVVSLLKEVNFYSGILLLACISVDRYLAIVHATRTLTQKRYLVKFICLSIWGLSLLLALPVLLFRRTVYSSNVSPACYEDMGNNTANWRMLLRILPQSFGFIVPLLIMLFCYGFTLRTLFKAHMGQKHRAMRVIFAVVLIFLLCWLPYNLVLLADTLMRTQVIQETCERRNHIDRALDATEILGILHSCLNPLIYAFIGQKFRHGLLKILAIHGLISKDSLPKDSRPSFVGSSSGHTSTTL

Cytochrome P450 2E1 = Cytochrome P450 2E1 (Homo sapiens, UniProt P05181); conditions: bti-tn-5b1-4; also: in other assays of this panel Not Active means under 50% inhibition at 10 µM
Sequence of Cytochrome P450 2E1 (P05181 whole entry): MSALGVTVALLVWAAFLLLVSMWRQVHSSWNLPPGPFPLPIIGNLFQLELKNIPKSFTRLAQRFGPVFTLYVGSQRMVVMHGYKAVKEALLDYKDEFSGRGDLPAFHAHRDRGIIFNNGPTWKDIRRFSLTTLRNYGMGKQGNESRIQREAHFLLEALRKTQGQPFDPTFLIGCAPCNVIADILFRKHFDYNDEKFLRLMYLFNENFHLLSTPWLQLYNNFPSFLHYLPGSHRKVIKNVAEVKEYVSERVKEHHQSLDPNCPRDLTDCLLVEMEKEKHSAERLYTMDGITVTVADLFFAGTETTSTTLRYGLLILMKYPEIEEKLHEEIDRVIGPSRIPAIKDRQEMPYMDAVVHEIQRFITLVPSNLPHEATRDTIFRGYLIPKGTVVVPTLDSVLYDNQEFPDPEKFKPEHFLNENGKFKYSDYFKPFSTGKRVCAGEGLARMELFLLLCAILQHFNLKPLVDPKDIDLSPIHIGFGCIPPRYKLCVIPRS

[3] = target: Receptor tyrosine-protein kinase erbB-2 (Homo sapiens, UniProt P04626); format: cell-based; conditions: insect cells;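 also: inhibition of HER2 kinase enzyme activity, measured with Poly(Glu:Tyr) as the phosphorylation substrate; in other assays of this panel Not Active means under 50% inhibition at 10 µM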
Progesterone receptor = target: T3, Progesterone receptor (Bos taurus, UniProt Q690N0); assay: DRUGMATRIX: Progesterone radioligand binding (ligand: [3H] R-5020); format: tissue-based, Uterus; conditions: Not Active = under 50% inhibition at 10 µM
T3 sequence (Q690N0 whole entry): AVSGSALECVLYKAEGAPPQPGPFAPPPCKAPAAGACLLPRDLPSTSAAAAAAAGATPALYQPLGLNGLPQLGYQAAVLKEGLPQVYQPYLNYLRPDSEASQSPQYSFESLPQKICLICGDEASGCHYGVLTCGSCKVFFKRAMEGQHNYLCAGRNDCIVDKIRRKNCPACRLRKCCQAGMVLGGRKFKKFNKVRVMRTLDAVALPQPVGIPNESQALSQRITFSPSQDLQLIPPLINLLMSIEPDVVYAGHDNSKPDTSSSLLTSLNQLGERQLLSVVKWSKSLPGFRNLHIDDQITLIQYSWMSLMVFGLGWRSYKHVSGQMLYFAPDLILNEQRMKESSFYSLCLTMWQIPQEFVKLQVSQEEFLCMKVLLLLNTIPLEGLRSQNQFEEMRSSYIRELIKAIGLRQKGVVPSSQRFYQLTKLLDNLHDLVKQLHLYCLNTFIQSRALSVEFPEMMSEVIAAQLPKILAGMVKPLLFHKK

[4] = target: Tyrosine-protein kinase Fyn (Homo sapiens, UniProt P06241); assay: biochemical; format: cell-based, Insect cells; conditions: insect cells;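 also: enzymatic inhibition of Fyn kinase activity measured with Poly(Glu:Tyr) as the phosphorylation substrate; in other assays of this panel Not Active means under 50% inhibition at 10 µM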
Sequence of Tyrosine-protein kinase Fyn (P06241 whole entry): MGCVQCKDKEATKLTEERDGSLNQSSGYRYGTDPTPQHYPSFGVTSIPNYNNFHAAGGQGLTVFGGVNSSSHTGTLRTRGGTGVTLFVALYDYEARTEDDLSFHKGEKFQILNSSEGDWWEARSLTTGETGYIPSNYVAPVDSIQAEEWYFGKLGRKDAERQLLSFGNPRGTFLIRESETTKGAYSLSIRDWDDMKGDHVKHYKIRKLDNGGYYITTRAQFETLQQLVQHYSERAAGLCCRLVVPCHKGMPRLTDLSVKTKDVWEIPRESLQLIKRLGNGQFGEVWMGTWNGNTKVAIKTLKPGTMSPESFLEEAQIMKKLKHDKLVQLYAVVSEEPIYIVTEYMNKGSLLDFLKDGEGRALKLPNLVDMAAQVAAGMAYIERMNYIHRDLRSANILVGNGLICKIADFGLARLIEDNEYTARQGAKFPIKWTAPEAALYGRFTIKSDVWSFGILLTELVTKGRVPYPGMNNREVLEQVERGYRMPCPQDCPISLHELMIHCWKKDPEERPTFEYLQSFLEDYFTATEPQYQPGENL

Sequence of Beta-3 adrenergic receptor (P13945 whole entry): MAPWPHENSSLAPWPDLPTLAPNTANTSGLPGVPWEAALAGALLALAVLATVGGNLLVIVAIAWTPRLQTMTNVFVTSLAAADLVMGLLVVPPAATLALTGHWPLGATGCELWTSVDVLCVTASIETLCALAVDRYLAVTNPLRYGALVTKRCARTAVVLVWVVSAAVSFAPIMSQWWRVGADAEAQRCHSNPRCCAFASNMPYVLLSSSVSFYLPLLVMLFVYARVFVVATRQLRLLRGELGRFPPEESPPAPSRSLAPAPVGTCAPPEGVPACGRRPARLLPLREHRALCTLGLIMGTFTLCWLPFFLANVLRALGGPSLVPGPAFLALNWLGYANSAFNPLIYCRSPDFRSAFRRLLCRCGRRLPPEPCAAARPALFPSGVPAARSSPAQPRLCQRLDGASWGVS

COC(=O)C[C@](O)(CCC(C)(C)O)C(=O)O[C@@H]1C(OC)=C[C@]23CCCN2CCc2cc4c(cc2[C@H]13)OCO4 [HARRINGTONINE]
Not Active: IC50 [1] | IC50 (D(4) dopamine receptor) | IC50 [2] | IC50 (Cytochrome P450 2E1) | Ki (Cytochrome P450 2E1) | IC50 [3] | IC50 (Progesterone receptor) | IC50 [4]

COc1cc(NC(C)CCCN)c2ncccc2c1 (stereo not given) [PRIMAQUINE]
Not Active: IC50 [1] | IC50 (D(4) dopamine receptor) | IC50 [2] | IC50 (Cytochrome P450 2E1) | Ki (Cytochrome P450 2E1) | IC50 [3] | IC50 (Progesterone receptor) | IC50 [4]

OC[C@H]1O[C@@H]2O[C@H]3[C@H](O)[C@@H](O)[C@@H](O[C@H]4[C@H](O)[C@@H](O)[C@@H](O[C@H]5[C@H](O)[C@@H](O)[C@@H](O[C@H]6[C@H](O)[C@@H](O)[C@@H](O[C@H]7[C@H](O)[C@@H](O)[C@@H](O[C@H]8[C@H](O)[C@@H](O)[C@@H](O[C@H]1[C@H](O)[C@H]2O)O[C@@H]8CO)O[C@@H]7CO)O[C@@H]6CO)O[C@@H]5CO)O[C@@H]4CO)O[C@@H]3CO [BETADEX]
Not Active: IC50 [1] | IC50 (D(4) dopamine receptor) | IC50 [2] | IC50 (Cytochrome P450 2E1) | Ki (Cytochrome P450 2E1) | IC50 [3] | IC50 (Progesterone receptor) | IC50 [4]

COc1cc([C@@H]2c3cc4c(cc3[C@H](O)[C@H]3COC(=O)[C@H]23)OCO4)cc(OC)c1OC [PODOFILOX]
Not Active: IC50 [1] | IC50 (D(4) dopamine receptor) | IC50 [2] | IC50 (Cytochrome P450 2E1) | Ki (Cytochrome P450 2E1) | IC50 [3] | IC50 (Progesterone receptor) | IC50 [4]

C[C@H]1C[C@H]2[C@@H]3CCC4=CC(=O)C=C[C@]4(C)[C@@]3(F)[C@@H](O)C[C@]2(C)[C@@]1(O)C(=O)CO [BETAMETHASONE]
Not Active: IC50 [1] | IC50 (D(4) dopamine receptor) | IC50 [2] | IC50 (Cytochrome P450 2E1) | Ki (Cytochrome P450 2E1) | IC50 [3] | IC50 (Progesterone receptor) | IC50 [4]

CARBOXYMETHYLCELLULOSE
Not Active: IC50 [1] | Ki [1] | IC50 (D(4) dopamine receptor) | Ki (D(4) dopamine receptor) | IC50 [2] | Ki [2] | IC50 (Cytochrome P450 2E1) | Ki (Cytochrome P450 2E1) | IC50 [3] | Ki [3] | IC50 (Progesterone receptor) | Ki (Progesterone receptor) | IC50 [4] | Ki [4]

NC(=O)CN1CCCC1=O
Not Active: IC50 [1] | IC50 (D(4) dopamine receptor) | IC50 [2] | IC50 (Cytochrome P450 2E1) | Ki (Cytochrome P450 2E1) | IC50 [3] | IC50 (Progesterone receptor) | IC50 [4]

CC(N)Cc1c[nH]c2ccc(OCc3cccs3)cc12 (stereo not given) [BW-723C86]
Not Active: IC50 [1] | IC50 (D(4) dopamine receptor) | IC50 [2] | IC50 (Cytochrome P450 2E1) | Ki (Cytochrome P450 2E1) | IC50 [3] | IC50 (Progesterone receptor) | IC50 [4]

CNC[C@H](O)c1ccc(O)c(O)c1 [EPINEPHRINE]
Not Active: IC50 [1] | IC50 (D(4) dopamine receptor) | IC50 [2] | IC50 (Cytochrome P450 2E1) | Ki (Cytochrome P450 2E1) | IC50 [3] | IC50 (Progesterone receptor) | IC50 [4]

c1ccc2c(c1)Nc1ccccc1S2 [PHENOTHIAZINE]
Not Active: IC50 [1] | IC50 (D(4) dopamine receptor) | IC50 [2] | IC50 (Cytochrome P450 2E1) | Ki (Cytochrome P450 2E1) | IC50 [3] | IC50 (Progesterone receptor) | IC50 [4]

ClC1=C(Cl)[C@]2(Cl)[C@@H]3[C@@H]4C[C@@H]([C@H]5O[C@@H]45)[C@@H]3[C@@]1(Cl)C2(Cl)Cl [DIELDRIN]
Not Active: IC50 [1] | IC50 (D(4) dopamine receptor) | IC50 [2] | IC50 (Cytochrome P450 2E1) | Ki (Cytochrome P450 2E1) | IC50 [3] | IC50 (Progesterone receptor) | IC50 [4]

CC(C)(c1ccc(O)cc1)c1ccc(O)cc1 [BISPHENOL A]
Not Active: IC50 [1] | IC50 (D(4) dopamine receptor) | IC50 [2] | IC50 (Cytochrome P450 2E1) | Ki (Cytochrome P450 2E1) | IC50 [3] | IC50 (Progesterone receptor) | IC50 [4]

CN(Cc1cc(Br)cc(Br)c1N)C1CCCCC1 [BROMHEXINE]
Not Active: IC50 [1] | IC50 (D(4) dopamine receptor) | IC50 [2] | IC50 (Cytochrome P450 2E1) | Ki (Cytochrome P450 2E1) | IC50 [3] | IC50 (Progesterone receptor) | IC50 [4]

c1ccc(Cn2ccnc2)cc1
Not Active: IC50 [1] | IC50 (D(4) dopamine receptor) | IC50 [2] | IC50 (Cytochrome P450 2E1) | Ki (Cytochrome P450 2E1) | IC50 [3] | IC50 (Progesterone receptor) | IC50 [4]

CCO [ALCOHOL]
Not Active: IC50 [1] | IC50 (D(4) dopamine receptor) | IC50 [2] | IC50 (Cytochrome P450 2E1) | Ki (Cytochrome P450 2E1) | IC50 [3] | IC50 (Progesterone receptor) | IC50 [4]

CCN1CCN(C(=O)N[C@@H](C(=O)N[C@@H]2C(=O)N3[C@@H]2SC(C)(C)[C@@H]3C(=O)O)c2ccccc2)C(=O)C1=O [PIPERACILLIN]
Not Active: IC50 [1] | IC50 (D(4) dopamine receptor) | IC50 [2] | IC50 (Cytochrome P450 2E1) | Ki (Cytochrome P450 2E1) | IC50 [3] | IC50 (Progesterone receptor) | IC50 [4]

NC(=O)NC(=O)Cc1ccccc1 [PHENACEMIDE]
Not Active: IC50 [1] | IC50 (D(4) dopamine receptor) | IC50 [2] | IC50 (Cytochrome P450 2E1) | Ki (Cytochrome P450 2E1) | IC50 [3] | IC50 (Progesterone receptor) | IC50 [4]

CC(CN1c2ccccc2Sc2ccccc21)N(C)C (stereo not given) [PROMETHAZINE]
Not Active: IC50 [1] | IC50 (D(4) dopamine receptor) | IC50 [2] | IC50 (Cytochrome P450 2E1) | Ki (Cytochrome P450 2E1) | IC50 [3] | IC50 (Progesterone receptor) | IC50 [4]

— ChEMBL document CHEMBL1909046, “DrugMatrix in vitro pharmacology data”
